Paper PMC5107945, “Abscinazole-E3M, a practical inhibitor of abscisic acid 8′-hydroxylase for improving drought tolerance” (Scientific Reports, 2016)

How the values were obtained:
rice seedling growth = experiment: Rice seedling elongation assay; format: in vivo, Oryza sativa L. cv. Nipponbare; conditions: Fig. S5
Procedure: The effects of (−)-Abz-T compounds were also tested on the early growth of rice seedlings to investigate whether the plant growth-retardant effect derived from UNI declined. […] This was the same trend observed for (−)-Abz-E2B[26]. […] Thus, the growth-retardant effects of (−)-Abz-T compounds may arise from an increase in the endogenous ABA level due to the CYP707A inhibition, although we cannot exclude the possibility that Abz-T compounds may inhibit off-target enzymes other than CYP707A and CYP701A.
Figure 4 Effects of (−)-Abz-T compounds on rice seedling growth compared with the effects of UNI and (−)-Abz-E2B. Seedlings grown on test media containing indicated concentrations of azole inhibitors for 7 d. Scale bars represent 10 mm. Compound 6 is also referred to as Abz-E3M.
For the rice seedling elongation assay, seven seeds (Oryza sativa L. cv. Nipponbare) were sterilised with reagent-grade EtOH for 5 min and washed with running tap water. They were then soaked in distilled water and incubated under continuous illumination at 25 °C for 3 d to germinate. The germinated seeds were then soaked in 2 mL of a test medium in a glass tube and grown under continuous illumination at 25 °C. When the seedlings were 7 d old, the length of the second leaf sheath was measured. All of the assays were conducted at least three times.

[1] = system: ABA-responsive genes MAPKKK18, RD29A and RD29B; experiment: qRT-PCR of ABA-responsive genes in Arabidopsis seedlings; format: in vivo, Arabidopsis (Columbia accession); conditions: 10-day-old seedlings, 6 h
Procedure: Figure 5 Effects of (−)-Abz-E3M on the expression levels of Arabidopsis ABA-responsive genes. Expression of MAPKKK18, RD29A and RD29B after treatment with (−)-Abz-E2B or (−)-Abz-E3M in the absence or presence of 0.25 μM ABA (n = 4, error bar represents s.d.).
Arabidopsis (Columbia accession) were grown for 10 d on agar plates containing 1/2 Murashige and Skoog (MS) and 0.5% sucrose at 22 °C under an 18/6-h light/dark cycle. Seedlings were incubated in the chemical solutions for 6 h. Total RNA from seedlings was isolated using the Plant RNA purification reagent (Thermo Fisher Scientific) according to the manufacturer’s instructions. cDNA was synthesised using the QuantiTec reverse transcription kit (Qiagen). Maize (cv. Gold rush, Sakata Seed Corporation) seedlings were grown in 100-mL pots containing 75 g of moist soil in a glass house. The root parts of the maize seedlings were washed with tap water and dipped in 100 μM (−)-Abz-E3M chemical solution containing 0.05% Tween-20 overnight. Total RNA from maize seedlings was isolated using an RNeasy mini kit (Qiagen) with the ‘on-column’ DNA digestion method. cDNA was synthesised using a High-Capacity cDNA Reverse Transcription Kit (Thermo Fisher Scientific). Real-time PCR using SYBR Premix Ex Taq™ II (Takara) was performed with Step One-Plus (Thermo Fisher Scientific). The primer sets are shown in Supplemental Table S1.

[2] = target: T1, Arabidopsis recombinant CYP707A3 (ABA 8′-hydroxylase) (Arabidopsis thaliana, UniProt Q9FH76); experiment: CYP707A3 inhibition assay (decrease of enzymatic product PA); format: biochemical; conditions: Arabidopsis recombinant CYP707A3 expressed in E. coli
T1 construct: made in house; host or cells: Escherichia coli (microsomal/membrane fraction)
T1 sequence (Q9FH76 1-463): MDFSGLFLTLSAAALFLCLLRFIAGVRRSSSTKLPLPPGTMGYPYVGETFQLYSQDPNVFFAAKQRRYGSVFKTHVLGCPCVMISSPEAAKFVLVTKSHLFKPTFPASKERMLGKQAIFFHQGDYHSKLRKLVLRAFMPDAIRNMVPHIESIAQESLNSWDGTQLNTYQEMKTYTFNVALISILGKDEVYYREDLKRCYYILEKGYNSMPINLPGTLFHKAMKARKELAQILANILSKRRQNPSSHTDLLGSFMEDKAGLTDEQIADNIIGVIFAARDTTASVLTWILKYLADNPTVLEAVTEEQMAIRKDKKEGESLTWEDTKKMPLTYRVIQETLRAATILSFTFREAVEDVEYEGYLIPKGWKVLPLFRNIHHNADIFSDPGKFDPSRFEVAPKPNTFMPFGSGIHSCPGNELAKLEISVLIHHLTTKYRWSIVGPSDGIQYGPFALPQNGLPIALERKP
Procedure: The inhibitory activities of Abz-T compounds against ABA 8′-hydroxylase were examined using recombinant Arabidopsis CYP707A3 co-expressed with Arabidopsis P-450 reductase (ATR1) in Escherichia coli[22]. The activity levels were evaluated based on the decrease in the amount of the enzymatic product, PA.
Reactions were initiated by adding NADPH, stopped by the addition of 25 μL of 1 M NaOH and then acidified with 50 μL of 1 M HCl. Reaction products were extracted by loading the mixture onto an Oasis HLB cartridge (1 mL, 30 mg; Waters Corp., Milford, MA, USA) and were washed with 1 mL of 10% MeOH in H2O (v/v) containing 1% acetic acid (AcOH, v/v). The enzyme products were then eluted with 1 mL of MeOH containing 1% AcOH, and the eluate was concentrated in vacuo. Each dried sample was then dissolved in 50 μL of MeOH, and a 20-μL volume was subjected to HPLC (Prominence; Shimadzu Corp., Kyoto, Japan). HPLC conditions were as follows: the octadecylsilyl column was composed of Hydrosphere C18 (150 × 6.0 mm, YMC Co., Ltd., Kyoto, Japan), and the solvent comprised 17% acetonitrile (MeCN) in H2O containing 0.05% AcOH (v/v). The flow rate was 1.0 mL min^−1, and detection was at 254 nm. Enzyme activity was evaluated by determining the amount of PA in control experiments prior to taking each set of measurements. The inhibition constants were determined using the Enzyme Kinetics module of the SigmaPlot 10 software (Systat Software, Inc., San Jose, CA, USA) after determining the inhibition mode by plotting the reaction velocity in the presence and absence of the inhibitor on a double-reciprocal plot. The inhibition ratio was defined as [(A − B)/A] × 100, where A = the amount of PA when the inhibitor was absent from the reaction mixture (control), and B = the amount of PA when the inhibitor was present. All of the tests were conducted at least three times.

Question: abscinazole-E3M [(−)-6] was tested. Which “Effect on rice seedling growth, co-treatment with ABA” value (rice seedling growth; 10 μM compound + 1 μM ABA) did it give?
Answer: inhibited rice seedling growth

Question: What about the “Effect on rice seedling growth, compound alone” value (rice seedling growth; 10 μM, no ABA) of the same substance?
Answer: did not

Question: And the “Expression of ABA-responsive genes MAPKKK18, RD29A and RD29B” value ([1]; absence of exogenous ABA)?
Answer: did not induce the expression

Question: What about the “Expression of ABA-responsive genes MAPKKK18, RD29A and RD29B” value ([1]; co-treatment with 0.25 μM ABA) of the same substance?
Answer: enhanced the expression levels of ABA-responsive genes

Question: What about the IC50 ([2]; 5 μM ABA as substrate, read-out: CYP707A IC50) of the same substance?
Answer: 64 nM

Question: And the Ki ([2]; ABA 1–64 μM, read-out: CYP707A KI)?
Answer: 35 nM
